{
  "source": "patent US20120093948A1",
  "about": "“Nitric Oxide Treatments” (priority 2009, published 2012)",
  "key": {"man": {"tested_on": "man", "settings": "cited from earlier work"}, "Rabbit": {"tested_on": "Rabbit", "settings": "less than 1 ppm, duration 24 days; cited from earlier work"}, "Guinea Pig": {"tested_on": "Guinea Pig", "settings": "less than 1 ppm, duration 7 days; cited from earlier work"}, "Mouse": {"tested_on": "Mouse", "settings": "less than 1 ppm, cited from earlier work"}, "COPD patients": {"tested_on": "COPD patients", "settings": "NO with oxygen, 3 month period, compared to oxygen alone; cited from earlier work"}, "[1]": {"tested_on": "patients with acute lung injury/acute respiratory distress syndrome", "settings": "conventional iNO; cited from earlier work"}, "mice models of malaria": {"tested_on": "mice models of malaria", "settings": "mouse, in vivo; cited from earlier work"}, "[2]": {"tested_on": "child with traumatic brain injury", "settings": "NO therapy; cited from earlier work"}, "rats": {"tested_on": "rats", "test": "Fourteen-day toxicity study using the delivery devices, rats", "assay_type": "in vivo", "settings": "doses well in excess of 80 ppm NO"}, "[3]": {"tested_on": "newborns with hypoxic respiratory failure", "settings": "inhaled; cited from earlier work"}, "[4]": {"tested_on": "patients with pulmonary tuberculosis", "settings": "80 ppm; cited from earlier work"}, "[5]": {"tested_on": "patents suffering massive pulmonary embolism", "settings": "inhaled; cited from earlier work"}, "dogs": {"tested_on": "dogs", "test": "Fourteen-day toxicity study using the delivery devices, dogs", "assay_type": "in vivo", "settings": "doses well in excess of 80 ppm NO"}, "[6]": {"tested_on": "patients with pulmonary fibrosis", "settings": "inhaled; cited from earlier work"}, "[7]": {"tested_on": "patients with cardiogenic shock due to RVMI", "settings": "cited from earlier work"}},
  "note": "Read-outs that look alike come from different tables or passages of the source.",
  "data": [
    {"smiles": "[O]N=O", "note": "[NO2, nitrogen dioxide]", "values": [
      {"measurement": "OUTCOME", "setting": "man; NO2 dose 0.1 ppm, exposure 60 min, asthmatics", "value": "13/16 asthmatics increase in reaction to"},
      {"measurement": "OUTCOME", "setting": "man; NO2 dose 0.7-2.0 ppm, exposure 10 min", "value": "Increase in inspiratory and expiratory flow"},
      {"measurement": "OUTCOME", "setting": "man; NO2 dose 1.6-2.0 ppm, exposure 15 min", "value": "Significant increase in total airway resistance"},
      {"measurement": "OUTCOME(S)", "setting": "Rabbit", "value": "Structural changes in lung collagen fibers"},
      {"measurement": "OUTCOME(S)", "setting": "Guinea Pig", "value": "Increased protein content of lung lavage fluid"},
      {"measurement": "OUTCOME(S)", "setting": "Mouse; duration 1 day", "value": "Increased ascorbic acid levels in the liver"},
      {"measurement": "OUTCOME(S)", "setting": "Mouse; duration 90 days", "value": "Depression in serum neutralizing"}
    ]},
    {"smiles": "[N]=O", "note": "[NO, nitric oxide]", "values": [
      {"measurement": "oxygenation", "setting": "COPD patients", "value": "did not result in a decrease"},
      {"measurement": "outcomes (increased PaO2, survival)", "setting": "[1]", "value": "positive outcomes"},
      {"measurement": "neurological damage", "setting": "mice models of malaria", "value": "protection"},
      {"measurement": "survival", "setting": "mice models of malaria", "value": "increased chance of survival"},
      {"measurement": "adverse cerebral effects", "setting": "[2]", "value": "No adverse cerebral effects"},
      {"measurement": "Fourteen-day toxicity study outcome", "setting": "rats", "value": "successfully been completed"},
      {"measurement": "arterial oxygen levels", "setting": "[3]", "value": "safely improves"},
      {"measurement": "need for Extracorporeal Membrane Oxygenation (ECMO)", "setting": "[3]", "value": "decreases"},
      {"measurement": "safety of delivery", "setting": "[4]", "value": "safely delivered"},
      {"measurement": "systemic blood pressures, heart rate and gas exchange", "setting": "[5]", "value": "improvements"},
      {"measurement": "Fourteen-day toxicity study outcome", "setting": "dogs", "value": "successfully been completed"},
      {"measurement": "arterial oxygen tension", "setting": "[6]", "value": "without a decrease"},
      {"measurement": "pulmonary vascular resistance", "setting": "[6]", "value": "decreased"},
      {"measurement": "ventilation perfusion matching", "setting": "[6]", "value": "maintained"},
      {"measurement": "decreased mPAP", "setting": "[7]; NO 80 ppm acutely", "value": 12, "unit": "%"},
      {"measurement": "decreased mRAP", "setting": "[7]; NO 80 ppm acutely", "value": 12, "unit": "%"},
      {"measurement": "improved cardiac index", "setting": "[7]; NO 80 ppm acutely", "value": 24, "unit": "%"},
      {"measurement": "decrease shunt flow", "setting": "[7]; inhaled NO", "value": 56, "unit": "%"},
      {"measurement": "systemic oxygen saturation", "setting": "[7]; inhaled NO", "value": "markedly improved"}
    ]}
  ]
}
